Data published in patent US11279691B2, “Substituted pyridine and pyrazine compounds as PDE4 inhibitors” (Dart Neuroscience LLC, priority 2013, dated 2022).

molecular target: T1, PDE4D3 (Homo sapiens, UniProt Q08499); format: biochemical; conditions: GST-tagged PDE4D3, 200 nM FAM-cAMP, 11-point dose-response; read-out: PD4d3 pEC50 (converted)
T1 construct: GST
T1 sequence (Q08499 1-673 isoform Q08499-2): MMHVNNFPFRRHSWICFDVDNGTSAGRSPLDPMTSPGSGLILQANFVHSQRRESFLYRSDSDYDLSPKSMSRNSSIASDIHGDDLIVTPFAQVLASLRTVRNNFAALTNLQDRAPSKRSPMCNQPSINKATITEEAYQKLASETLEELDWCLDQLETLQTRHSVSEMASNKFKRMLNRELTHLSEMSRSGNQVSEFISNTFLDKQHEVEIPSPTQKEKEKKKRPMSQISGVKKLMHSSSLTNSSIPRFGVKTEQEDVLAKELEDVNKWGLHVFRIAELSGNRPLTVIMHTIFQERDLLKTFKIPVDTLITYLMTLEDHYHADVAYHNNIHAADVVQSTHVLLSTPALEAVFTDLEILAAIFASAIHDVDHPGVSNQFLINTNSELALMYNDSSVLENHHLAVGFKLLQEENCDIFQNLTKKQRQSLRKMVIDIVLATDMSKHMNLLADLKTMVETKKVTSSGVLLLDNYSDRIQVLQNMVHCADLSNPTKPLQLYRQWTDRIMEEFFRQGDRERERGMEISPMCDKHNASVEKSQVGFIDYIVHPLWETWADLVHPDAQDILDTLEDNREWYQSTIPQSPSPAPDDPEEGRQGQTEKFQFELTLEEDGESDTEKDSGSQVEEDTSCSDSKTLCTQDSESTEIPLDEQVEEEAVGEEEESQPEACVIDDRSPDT

Q: `COc1ncc(Cc2cnc(C#N)nc2)nc1-c1cccc(OC(F)F)c1` [Example 107, 5-({6-[3-(Difluoromethoxy)phenyl]-5-methoxypyrazin-2-yl}methyl)pyrimidine-2-carbonitrile] was tested. Which EC50 did it give?
A: 100 to 1000 nM

Q: With `CCOc1ncc(Cn2cnc(C(F)(F)F)n2)cc1-c1cccc(OC(F)F)c1` [Example 162, 3-[3-(Difluoromethoxy)phenyl]-2-ethoxy-5-{[3-(trifluoromethyl)-1H-1,2,4-triazol-1-yl]methyl}pyridine] as the compound, how does the EC50 read?
A: 100 to 1000 nM

Q: With `Nc1ncn(Cc2cnc(OC(F)F)c(-c3cccc(Cl)c3)c2)n1` [Example 218, 1-{[5-(3-Chlorophenyl)-6-(difluoromethoxy)pyridin-3-yl]methyl}-1H-1,2,4-triazol-3-amine] as the compound, how does the EC50 read?
A: 100 to 1000 nM

Q: Which EC50 does the source give for `CCOc1ncc(Cn2cc(CO)cn2)cc1-c1cccc(Cl)c1` [Example 273, (1-{[5-(3-Chlorophenyl)-6-ethoxypyridin-3-yl]methyl}-1H-pyrazol-4-yl)methanol] here?
A: 100 to 1000 nM

Q: How did the EC50 turn out when `CCOc1ncc(Cn2cnc(CO)n2)cc1-c1ccccc1F` [Example 277, (1-((6-Ethoxy-5-(2-fluorophenyl)pyridin-3-yl)methyl)-1H-1,2,4-triazol-3-yl)methanol] was run?
A: > 10000 nM

Q: For `CCCOc1ncc(Cc2cnc(N)nc2)cc1-c1ccc(F)c(F)c1` [Example 278, 5-((5-(3,4-Difluorophenyl)-6-propoxypyridin-3-yl)methyl)pyrimidin-2-amine], which EC50 is on record?
A: < 100 nM

Q: Which EC50 does the source give for `CCOc1ncc(Cc2cnc(N)nc2)cc1-c1ccc(F)c(Cl)c1` [Example 279, 5-((5-(3-Chloro-4-fluorophenyl)-6-ethoxypyridin-3-yl)methyl)pyrimidin-2-amine] here?
A: < 100 nM

Q: With `COc1ncc(Cc2ccc(CC(N)=O)cc2)cc1-c1cccc(Cl)c1` [Example 280, 2-(4-((5-(3-Chlorophenyl)-6-methoxypyridin-3-yl)methyl)phenyl)acetamide] as the compound, how does the EC50 read?
A: < 100 nM

Q: For `COc1ncc(Cc2cnc(CC(N)=O)nc2)cc1-c1ccc(F)cc1` [Example 281, 2-(5-{[5-(4-Fluorophenyl)-6-methoxypyridin-3-yl]methyl}pyrimidin-2-yl)acetamide], which EC50 is on record?
A: < 100 nM

Q: For `COc1ncc(Cc2cnc(C(N)=O)nc2)cc1-c1ccc(F)c(Cl)c1` [Example 282, 5-{[5-(3-Chloro-4-fluorophenyl)-6-methoxypyridin-3-yl]methyl}pyrimidine-2-carboxamide], which EC50 is on record?
A: 100 to 1000 nM

Q: `COc1ncc(Cc2cnc(NCCO)nc2)cc1-c1ccc(F)cc1` [Example 283, 2-[(5-{[5-(4-Fluorophenyl)-6-methoxypyridin-3-yl]methyl}pyrimidin-2-yl)amino]ethan-1-ol] was tested. Which EC50 did it give?
A: 100 to 1000 nM

Q: How did the EC50 turn out when `COc1ncc(Cc2cnc(C(C)(C)C#N)nc2)cc1-c1cccc(Cl)c1` [Example 284, 2-(5-((5-(3-Chlorophenyl)-6-methoxypyridin-3-yl)methyl)pyrimidin-2-yl)-2-methylpropanenitrile] was run?
A: 1000 to 10000 nM

Q: How did the EC50 turn out when `N#CCc1ncn(Cc2cnc(OC(F)F)c(-c3cccc(Cl)c3)c2)n1` [Example 285, 2-(1-{[5-(3-chlorophenyl)-6-(difluoromethoxy)pyridin-3-yl]methyl}-1H-1,2,4-triazol-3-yl)acetonitrile] was run?
A: 100 to 1000 nM

Q: With `CCOc1ccc(Cc2cnc(OC)c(-c3cccc(Cl)c3)c2)nc1` [Example 286, 3-(3-Chlorophenyl)-5((5-ethoxypyridin-2-yl)methyl)-2-methoxy pyridine] as the compound, how does the EC50 read?
A: > 10000 nM

Q: With `COc1ncc(Cc2cnc(N)cn2)cc1-c1cccc(Cl)c1` [Example 287, 5-((5-(3-Chlorophenyl)-6-methoxypyridin-3-yl)methyl)pyrazin-2-amine] as the compound, how does the EC50 read?
A: < 100 nM

Q: How did the EC50 turn out when `COc1ncc(Cc2cnc(N)cn2)cc1-c1ccc(F)c(Cl)c1` [Example 288, 5-((5-(3-Chloro-4-fluorophenyl)-6-methoxypyridin-3-yl)methyl)pyrazin-2-amine] was run?
A: < 100 nM

Q: How did the EC50 turn out when `CCOc1cnc(Cc2cnc(OC)c(-c3cccc(Cl)c3)c2)cn1` [Example 289, 2-((5-(3-Chlorophenyl)-6-methoxypyridin-3-yl)methyl)-5-ethoxypyrazine] was run?
A: 100 to 1000 nM

Q: `COc1ncc(Cc2cnc(NCCO)cn2)cc1-c1cccc(Cl)c1` [Example 290, 2-((5-((5-(3-Chlorophenyl)-6-methoxypyridin-3-yl)methyl)pyrazin-2-yl)amino) ethanol] was tested. Which EC50 did it give?
A: < 100 nM

Q: How did the EC50 turn out when `COc1ncc(Cc2cnc(N3CCOCC3)nc2)cc1-c1cccc(Cl)c1` [Example 292] was run?
A: 1000 to 10000 nM

Q: How did the EC50 turn out when `CCOc1ncc(Cc2cnc(N)nc2)nc1-c1ccc(F)c(F)c1` [Example 293, 5-((6-(3,4-difluorophenyl)-5-ethoxypyrazin-2-yl)methyl)pyrimidin-2-amine] was run?
A: < 100 nM

Q: Which EC50 does the source give for `CCOc1ncc(Cc2cnc(NCCO)nc2)nc1-c1ccc(F)c(F)c1` [Example 294, 2-((5-((6-(3,4-difluorophenyl)-5-ethoxypyrazin-2-yl)methyl)pyrimidin-2-yl)amino)ethanol] here?
A: < 100 nM

Q: For `COc1ncc(Cn2nnnc2CCO)cc1-c1cccc(Cl)c1` [Example 295, 2-(1-((5-(3-Chlorophenyl)-6-methoxypyridin-3-yl)methyl)-1H-tetrazol-5-yl)ethanol], which EC50 is on record?
A: 1000 to 10000 nM

Q: For `CCOc1ncc(Cn2nnnc2C)cc1-c1ccc(F)cc1` [Example 296, 2-Ethoxy-3-(4-fluorophenyl)-5-((5-methyl-1H-tetrazol-1-yl)methyl)pyridine], which EC50 is on record?
A: < 100 nM

Q: Which EC50 does the source give for `COc1ncc(Cn2cc(C(F)F)nc2C)cc1-c1ccnc(OC(F)F)c1` [Example 297, 2′-(Difluoromethoxy)-5-((4-(difluoromethyl)-2-methyl-1H-imidazol-1-yl)methyl)-2-methoxy-3,4′-bipyridine] here?
A: 100 to 1000 nM

Q: For `COc1ncc(Cc2cnc(OCC(N)=O)nc2)cc1-c1cccc(Cl)c1` [Example 298, 2-((5-((5-(3-Chlorophenyl)-6-methoxypyridin-3-yl)methyl)pyrimidin-2-yl)oxy)acetamide], which EC50 is on record?
A: < 100 nM

Q: How did the EC50 turn out when `COc1ncc(Cc2cnc(CO)nc2)cc1-c1cccc(Cl)c1` [Example 299, (5-((5-(3-Chlorophenyl)-6-methoxypyridin-3-yl)methyl)pyrimidin-2-yl)methanol] was run?
A: < 100 nM

Q: For `OCc1ncn(Cc2cnc(OCC(F)(F)F)c(-c3cccc(Cl)c3)c2)n1` [Example 300, (1-((5-(3-Chlorophenyl)-6-(2,2,2-trifluoroethoxy)pyridin-3-yl)methyl)-1H-1,2,4-triazol-3-yl)methanol], which EC50 is on record?
A: 100 to 1000 nM

Q: For `COc1ncc(Cc2cnc(N)c(F)c2)cc1-c1ccnc(OC(F)F)c1` [Example 301, 5-((2′-(Difluoromethoxy)-2-methoxy-[3,4′-bipyridin]-5-yl)methyl)-3-fluoropyridin-2-amine], which EC50 is on record?
A: < 100 nM

Q: Which EC50 does the source give for `COc1ncc(Cc2cnc(O)nc2)cc1-c1cccc(Cl)c1` [Example 302, 5-((5-(3-Chlorophenyl)-6-methoxypyridin-3-yl)methyl)pyrimidin-2-ol] here?
A: 1000 to 10000 nM

Q: How did the EC50 turn out when `COc1ncc(Cc2cnc(OCCO)nc2)cc1-c1cccc(Cl)c1` [Example 303, 2-((5-((5-(3-Chlorophenyl)-6-methoxypyridin-3-yl)methyl)pyrimidin-2-yl)oxy)ethanol] was run?
A: < 100 nM

Q: How did the EC50 turn out when `COc1ncc(Cc2cnc(OC(F)F)nc2)cc1-c1cccc(Cl)c1` [Example 304, 5-((5-(3-Chlorophenyl)-6-methoxypyridin-3-yl)methyl)-2-(difluoromethoxy)pyrimidine] was run?
A: 100 to 1000 nM

Q: For `COc1ncc(Cc2cnnc(C)c2)cc1-c1cccc(Cl)c1` [Example 305, 5-{[5-(3-Chlorophenyl)-6-methoxypyridin-3-yl]methyl}-3-methylpyridazine], which EC50 is on record?
A: 100 to 1000 nM
